According to patent publication US11109593B2, “Isoxazolin-5-one derivative and herbicide containing same as active ingredient” (HOKKO CHEMICAL INDUSTRY CO., LTD., priority 2017, dated 2021):

Legend:
Type in all cases: in vivo
Echinochloa crus-galli [1] = assay: Test Example 1: herbicidal effect test by treatment of rice paddy soil (immediately after seeding); settings: 120 g/10a active ingredient, dry weight vs untreated area, 14 days after treatment
How it was run: (§1)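 Puddled, fertilized (N:P:K=17:17:17) paddy soil in Wagner pots; seeds sown 0–1 cm deep, flooded to about 3 cm. Emulsifiable formulations diluted in water and dropped into the water immediately after seeding at 120 g active ingredient per 10 ares; greenhouse. Herbicidal rate from dry weight vs untreated at 14 days.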

Scirpus juncoides [2] = assay: as above; settings: 120 g/10a active ingredient, dry weight vs untreated area, 14 days after treatment
How it was run: as §1

[3] = system: broad leaf weeds (Lindernia pyxidaria and Monochoria vaginalis); assay: as above; settings: 120 g/10a active ingredient, dry weight vs untreated area, 14 days after treatment
How it was run: as §1

Echinochloa crus-galli [4] = assay: Test Example 2: herbicidal effect test by treatment during growing period in paddy rice cultivation (seven days after seeding); settings: 120 g/10a active ingredient, assessed 14 days after treatment, dry weight vs untreated area
How it was run: (§2)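 Seeds sown 0–1 cm deep in puddled, fertilised paddy soil with about 3 cm standing water in a glass greenhouse. Diluted emulsion dropped into the water seven days after seeding at 120 g active ingredient per 10 ares. Herbicidal rate (%) from mean dry weight vs untreated, duplicate, 14 days after treatment.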

Scirpus juncoides [5] = assay: as above; settings: 120 g/10a active ingredient, assessed 14 days after treatment, dry weight vs untreated area
How it was run: as §2

[6] = system: broad leaf weeds (Lindernia pyxidaria and Monochoria vaginalis); assay: as above; settings: 120 g/10a active ingredient, assessed 14 days after treatment, dry weight vs untreated area
How it was run: as §2

Amaranthus viridis [7] = assay: Test Example 3: herbicidal effect test by treatment of dry field farming soil (one day after seeding); settings: 120 g/10a active ingredient, evaluated 14 days after treatment
How it was run: (§3)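 Alluvial dry-field soil in pots, top 1 cm mixed with 20 seeds per weed species. One day after seeding, the water-diluted emulsion was sprayed onto the soil surface at 100 L per 10 ares (120 g active ingredient per 10 ares). Duplicate pots; herbicidal rate (%) from plant dry weight versus untreated, 14 days after treatment.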

Chenopodium album [8] = assay: as above; settings: 120 g/10a active ingredient, evaluated 14 days after treatment
How it was run: as §3

Echinochloa crus-galli [9] = assay: as above; settings: 120 g/10a active ingredient, evaluated 14 days after treatment
How it was run: as §3

southern crabgrass [10] = assay: as above; settings: 120 g/10a active ingredient, evaluated 14 days after treatment
How it was run: as §3

Amaranthus viridis [11] = assay: Test Example 4: herbicidal effect test by treatment of leave and stem in dry field farming (seven days after seeding); settings: 120 g/10a active ingredient; emulsion sprayed seven days after seeding; evaluated 14 days after treatment
How it was run: (§4)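 Duplicate pots were scored 14 days post-spray by dry weight, herbicidal rate = {1 − treated/untreated average dry weight} × 100. The water-diluted emulsion, equivalent to 120 g active ingredient per 10 ares in 100 L, was applied seven days after sowing 20 seeds each into the upper 1 cm of alluvial soil.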

Chenopodium album [12] = assay: as above; settings: 120 g/10a active ingredient; emulsion sprayed seven days after seeding; evaluated 14 days after treatment
How it was run: as §4

Echinochloa crus-galli [13] = assay: as above; settings: 120 g/10a active ingredient; emulsion sprayed seven days after seeding; evaluated 14 days after treatment
How it was run: as §4

southern crabgrass [14] = assay: as above; settings: 120 g/10a active ingredient; emulsion sprayed seven days after seeding; evaluated 14 days after treatment
How it was run: as §4

COCC(C)n1oc(=O)c(Cc2ccccc2N(C(=O)OC(C)C)S(=O)(=O)C(F)(F)F)c1C (stereo not shown) [Compound 1-647]
90%: Herbicidal rate (%) Echinochloa crus-galli (Echinochloa crus-galli [1]) | Herbicidal rate (%) Scirpus juncoides (Scirpus juncoides [2]) | Herbicidal rate (%) Lindernia pyxidaria [3] | Herbicidal rate (%) Monochoria vaginalis [3] | Herbicidal rate (%) Echinochloa crus-galli (Echinochloa crus-galli [4]) | Herbicidal rate (%) Scirpus juncoides (Scirpus juncoides [5]) | Herbicidal rate (%) Lindernia pyxidaria [6] | Herbicidal rate (%) Monochoria vaginalis [6] | herbicidal rate, Amaranthus viridis (Amaranthus viridis [7]) | herbicidal rate, Chenopodium album (Chenopodium album [8]) | herbicidal rate, Echinochloa crus-galli (Echinochloa crus-galli [9]) | herbicidal rate, southern crabgrass (southern crabgrass [10]) | herbicidal effect (herbicidal rate), Echinochloa crus-galli (Echinochloa crus-galli [13]) | herbicidal effect (herbicidal rate), southern crabgrass (southern crabgrass [14])
40%: herbicidal effect (herbicidal rate), Amaranthus viridis (Amaranthus viridis [11]) | herbicidal effect (herbicidal rate), Chenopodium album (Chenopodium album [12])

CCC(CC)n1oc(=O)c(Cc2ccccc2N(S(=O)(=O)C(F)(F)F)S(=O)(=O)C(F)(F)F)c1C [Compound 1-965]
50%: Herbicidal rate (%) Lindernia pyxidaria [6]
90%: herbicidal effect (herbicidal rate), Amaranthus viridis (Amaranthus viridis [11]) | herbicidal effect (herbicidal rate), Echinochloa crus-galli (Echinochloa crus-galli [13]) | herbicidal effect (herbicidal rate), southern crabgrass (southern crabgrass [14])
80%: Herbicidal rate (%) Scirpus juncoides (Scirpus juncoides [2]) | Herbicidal rate (%) Lindernia pyxidaria [3] | Herbicidal rate (%) Scirpus juncoides (Scirpus juncoides [5]) | Herbicidal rate (%) Monochoria vaginalis [6]
100%: Herbicidal rate (%) Echinochloa crus-galli (Echinochloa crus-galli [1]) | Herbicidal rate (%) Monochoria vaginalis [3] | Herbicidal rate (%) Echinochloa crus-galli (Echinochloa crus-galli [4]) | herbicidal rate, Amaranthus viridis (Amaranthus viridis [7]) | herbicidal rate, Chenopodium album (Chenopodium album [8]) | herbicidal rate, Echinochloa crus-galli (Echinochloa crus-galli [9]) | herbicidal rate, southern crabgrass (southern crabgrass [10])
40%: herbicidal effect (herbicidal rate), Chenopodium album (Chenopodium album [12])

CCCC(C)n1oc(=O)c(Cc2ccccc2N(C(C)=O)S(=O)(=O)C(F)(F)F)c1C (stereo not shown) [Compound 1-299]
80%: Herbicidal rate (%) Monochoria vaginalis [3] | herbicidal rate, southern crabgrass (southern crabgrass [10]) | herbicidal effect (herbicidal rate), southern crabgrass (southern crabgrass [14])
60%: Herbicidal rate (%) Lindernia pyxidaria [6]
70%: Herbicidal rate (%) Monochoria vaginalis [6] | herbicidal rate, Amaranthus viridis (Amaranthus viridis [7])
40%: herbicidal rate, Chenopodium album (Chenopodium album [8]) | herbicidal effect (herbicidal rate), Amaranthus viridis (Amaranthus viridis [11])
100%: Herbicidal rate (%) Echinochloa crus-galli (Echinochloa crus-galli [1]) | Herbicidal rate (%) Lindernia pyxidaria [3] | Herbicidal rate (%) Echinochloa crus-galli (Echinochloa crus-galli [4])
90%: Herbicidal rate (%) Scirpus juncoides (Scirpus juncoides [2]) | Herbicidal rate (%) Scirpus juncoides (Scirpus juncoides [5]) | herbicidal rate, Echinochloa crus-galli (Echinochloa crus-galli [9]) | herbicidal effect (herbicidal rate), Chenopodium album (Chenopodium album [12]) | herbicidal effect (herbicidal rate), Echinochloa crus-galli (Echinochloa crus-galli [13])

CCC(C)Cn1oc(=O)c(Cc2ccccc2N(C(=O)OCc2ccccc2)S(=O)(=O)C(F)(F)F)c1C (single isomer, unassigned) [1-789 (TLC bottom)]
50%: herbicidal effect (herbicidal rate), Echinochloa crus-galli (Echinochloa crus-galli [13]) | herbicidal effect (herbicidal rate), southern crabgrass (southern crabgrass [14])
60%: Herbicidal rate (%) Lindernia pyxidaria [6] | herbicidal rate, southern crabgrass (southern crabgrass [10]) | herbicidal effect (herbicidal rate), Amaranthus viridis (Amaranthus viridis [11])
90%: Herbicidal rate (%) Scirpus juncoides (Scirpus juncoides [2]) | Herbicidal rate (%) Lindernia pyxidaria [3] | Herbicidal rate (%) Monochoria vaginalis [3] | Herbicidal rate (%) Scirpus juncoides (Scirpus juncoides [5]) | Herbicidal rate (%) Monochoria vaginalis [6] | herbicidal rate, Echinochloa crus-galli (Echinochloa crus-galli [9])
40%: herbicidal effect (herbicidal rate), Chenopodium album (Chenopodium album [12])
80%: herbicidal rate, Chenopodium album (Chenopodium album [8])
70%: herbicidal rate, Amaranthus viridis (Amaranthus viridis [7])
100%: Herbicidal rate (%) Echinochloa crus-galli (Echinochloa crus-galli [1]) | Herbicidal rate (%) Echinochloa crus-galli (Echinochloa crus-galli [4])

Cc1c(Cc2ccccc2NS(=O)(=O)C(F)(F)F)c(=O)on1C(C)(C)C [Compound 1-101]
90%: Herbicidal rate (%) Echinochloa crus-galli (Echinochloa crus-galli [1]) | Herbicidal rate (%) Scirpus juncoides (Scirpus juncoides [2]) | Herbicidal rate (%) Lindernia pyxidaria [3] | Herbicidal rate (%) Monochoria vaginalis [3] | Herbicidal rate (%) Echinochloa crus-galli (Echinochloa crus-galli [4]) | Herbicidal rate (%) Scirpus juncoides (Scirpus juncoides [5]) | Herbicidal rate (%) Lindernia pyxidaria [6] | Herbicidal rate (%) Monochoria vaginalis [6] | herbicidal rate, Amaranthus viridis (Amaranthus viridis [7]) | herbicidal rate, Chenopodium album (Chenopodium album [8]) | herbicidal rate, Echinochloa crus-galli (Echinochloa crus-galli [9]) | herbicidal rate, southern crabgrass (southern crabgrass [10]) | herbicidal effect (herbicidal rate), Echinochloa crus-galli (Echinochloa crus-galli [13]) | herbicidal effect (herbicidal rate), southern crabgrass (southern crabgrass [14])
40%: herbicidal effect (herbicidal rate), Amaranthus viridis (Amaranthus viridis [11]) | herbicidal effect (herbicidal rate), Chenopodium album (Chenopodium album [12])

Cc1c(Cc2ccccc2NS(=O)(=O)C(F)(F)F)c(=O)on1Cc1ccc(F)cc1 [Compound 1-183]
80%: Herbicidal rate (%) Echinochloa crus-galli (Echinochloa crus-galli [4])
100%: Herbicidal rate (%) Echinochloa crus-galli (Echinochloa crus-galli [1]) | Herbicidal rate (%) Scirpus juncoides (Scirpus juncoides [2]) | Herbicidal rate (%) Lindernia pyxidaria [3] | Herbicidal rate (%) Monochoria vaginalis [3] | Herbicidal rate (%) Scirpus juncoides (Scirpus juncoides [5]) | Herbicidal rate (%) Lindernia pyxidaria [6] | Herbicidal rate (%) Monochoria vaginalis [6]
40%: herbicidal effect (herbicidal rate), Amaranthus viridis (Amaranthus viridis [11])
90%: herbicidal rate, Echinochloa crus-galli (Echinochloa crus-galli [9]) | herbicidal rate, southern crabgrass (southern crabgrass [10]) | herbicidal effect (herbicidal rate), Echinochloa crus-galli (Echinochloa crus-galli [13])
50%: herbicidal rate, Amaranthus viridis (Amaranthus viridis [7]) | herbicidal effect (herbicidal rate), Chenopodium album (Chenopodium album [12]) | herbicidal effect (herbicidal rate), southern crabgrass (southern crabgrass [14])
60%: herbicidal rate, Chenopodium album (Chenopodium album [8])

Cc1c(Cc2ccccc2NS(=O)(=O)C(F)(F)F)c(=O)on1C1CCCCC1 [Compound 1-142]
60%: herbicidal effect (herbicidal rate), Amaranthus viridis (Amaranthus viridis [11])
70%: herbicidal rate, Amaranthus viridis (Amaranthus viridis [7])
90%: Herbicidal rate (%) Scirpus juncoides (Scirpus juncoides [2]) | Herbicidal rate (%) Monochoria vaginalis [3] | Herbicidal rate (%) Scirpus juncoides (Scirpus juncoides [5]) | Herbicidal rate (%) Lindernia pyxidaria [6] | herbicidal rate, Chenopodium album (Chenopodium album [8]) | herbicidal rate, southern crabgrass (southern crabgrass [10]) | herbicidal effect (herbicidal rate), Echinochloa crus-galli (Echinochloa crus-galli [13])
40%: herbicidal effect (herbicidal rate), Chenopodium album (Chenopodium album [12])
100%: Herbicidal rate (%) Echinochloa crus-galli (Echinochloa crus-galli [1]) | Herbicidal rate (%) Lindernia pyxidaria [3] | Herbicidal rate (%) Echinochloa crus-galli (Echinochloa crus-galli [4]) | Herbicidal rate (%) Monochoria vaginalis [6] | herbicidal rate, Echinochloa crus-galli (Echinochloa crus-galli [9])
80%: herbicidal effect (herbicidal rate), southern crabgrass (southern crabgrass [14])

C=CC(C)n1oc(=O)c(Cc2ccccc2NS(=O)(=O)C(F)(F)F)c1C (stereo not shown) [Compound 1-136]
70%: Herbicidal rate (%) Monochoria vaginalis [3] | Herbicidal rate (%) Monochoria vaginalis [6] | herbicidal effect (herbicidal rate), Echinochloa crus-galli (Echinochloa crus-galli [13]) | herbicidal effect (herbicidal rate), southern crabgrass (southern crabgrass [14])
100%: Herbicidal rate (%) Echinochloa crus-galli (Echinochloa crus-galli [1]) | herbicidal rate, Amaranthus viridis (Amaranthus viridis [7]) | herbicidal rate, Echinochloa crus-galli (Echinochloa crus-galli [9]) | herbicidal rate, southern crabgrass (southern crabgrass [10])
90%: Herbicidal rate (%) Scirpus juncoides (Scirpus juncoides [2]) | Herbicidal rate (%) Echinochloa crus-galli (Echinochloa crus-galli [4]) | Herbicidal rate (%) Scirpus juncoides (Scirpus juncoides [5])
60%: Herbicidal rate (%) Lindernia pyxidaria [6] | herbicidal rate, Chenopodium album (Chenopodium album [8]) | herbicidal effect (herbicidal rate), Amaranthus viridis (Amaranthus viridis [11]) | herbicidal effect (herbicidal rate), Chenopodium album (Chenopodium album [12])
80%: Herbicidal rate (%) Lindernia pyxidaria [3]

C=CCOC(=O)N(c1ccccc1Cc1c(C)n(CCSC)oc1=O)S(=O)(=O)C(F)(F)F [Compound 1-709]
90%: Herbicidal rate (%) Echinochloa crus-galli (Echinochloa crus-galli [1]) | Herbicidal rate (%) Scirpus juncoides (Scirpus juncoides [2]) | Herbicidal rate (%) Lindernia pyxidaria [3] | Herbicidal rate (%) Monochoria vaginalis [3] | Herbicidal rate (%) Echinochloa crus-galli (Echinochloa crus-galli [4]) | Herbicidal rate (%) Scirpus juncoides (Scirpus juncoides [5]) | Herbicidal rate (%) Lindernia pyxidaria [6] | Herbicidal rate (%) Monochoria vaginalis [6] | herbicidal rate, Amaranthus viridis (Amaranthus viridis [7]) | herbicidal rate, Chenopodium album (Chenopodium album [8]) | herbicidal rate, Echinochloa crus-galli (Echinochloa crus-galli [9]) | herbicidal rate, southern crabgrass (southern crabgrass [10]) | herbicidal effect (herbicidal rate), Echinochloa crus-galli (Echinochloa crus-galli [13]) | herbicidal effect (herbicidal rate), southern crabgrass (southern crabgrass [14])
40%: herbicidal effect (herbicidal rate), Amaranthus viridis (Amaranthus viridis [11]) | herbicidal effect (herbicidal rate), Chenopodium album (Chenopodium album [12])

CCOC(=O)N(c1ccccc1Cc1c(C)n(CC(C)CC)oc1=O)S(=O)(=O)C(F)(F)F (stereo not shown) [Compound 1-611]
40%: herbicidal rate, Amaranthus viridis (Amaranthus viridis [7]) | herbicidal rate, Chenopodium album (Chenopodium album [8])
70%: Herbicidal rate (%) Lindernia pyxidaria [6] | herbicidal rate, Echinochloa crus-galli (Echinochloa crus-galli [9]) | herbicidal rate, southern crabgrass (southern crabgrass [10]) | herbicidal effect (herbicidal rate), southern crabgrass (southern crabgrass [14])
100%: Herbicidal rate (%) Echinochloa crus-galli (Echinochloa crus-galli [1]) | Herbicidal rate (%) Echinochloa crus-galli (Echinochloa crus-galli [4])
80%: Herbicidal rate (%) Monochoria vaginalis [3] | Herbicidal rate (%) Monochoria vaginalis [6] | herbicidal effect (herbicidal rate), Echinochloa crus-galli (Echinochloa crus-galli [13])
60%: herbicidal effect (herbicidal rate), Amaranthus viridis (Amaranthus viridis [11])
90%: Herbicidal rate (%) Scirpus juncoides (Scirpus juncoides [2]) | Herbicidal rate (%) Lindernia pyxidaria [3] | Herbicidal rate (%) Scirpus juncoides (Scirpus juncoides [5])
50%: herbicidal effect (herbicidal rate), Chenopodium album (Chenopodium album [12])
